Measured values taken from ChEMBL document CHEMBL1143312, “Design, synthesis, and evaluation in vitro of quinoline-8-carboxamides, a new class of poly(adenosine-diphosphate-ribose)polymerase-1 (PARP-1) inhibitor” (J Med Chem, 2009).

Target: Poly [ADP-ribose] polymerase 1 (Homo sapiens, UniProt P09874)
Test: Inhibition of human recombinant PARP1 by Trevigen colorimetric assay

Chain of Poly [ADP-ribose] polymerase 1 (P09874 whole entry): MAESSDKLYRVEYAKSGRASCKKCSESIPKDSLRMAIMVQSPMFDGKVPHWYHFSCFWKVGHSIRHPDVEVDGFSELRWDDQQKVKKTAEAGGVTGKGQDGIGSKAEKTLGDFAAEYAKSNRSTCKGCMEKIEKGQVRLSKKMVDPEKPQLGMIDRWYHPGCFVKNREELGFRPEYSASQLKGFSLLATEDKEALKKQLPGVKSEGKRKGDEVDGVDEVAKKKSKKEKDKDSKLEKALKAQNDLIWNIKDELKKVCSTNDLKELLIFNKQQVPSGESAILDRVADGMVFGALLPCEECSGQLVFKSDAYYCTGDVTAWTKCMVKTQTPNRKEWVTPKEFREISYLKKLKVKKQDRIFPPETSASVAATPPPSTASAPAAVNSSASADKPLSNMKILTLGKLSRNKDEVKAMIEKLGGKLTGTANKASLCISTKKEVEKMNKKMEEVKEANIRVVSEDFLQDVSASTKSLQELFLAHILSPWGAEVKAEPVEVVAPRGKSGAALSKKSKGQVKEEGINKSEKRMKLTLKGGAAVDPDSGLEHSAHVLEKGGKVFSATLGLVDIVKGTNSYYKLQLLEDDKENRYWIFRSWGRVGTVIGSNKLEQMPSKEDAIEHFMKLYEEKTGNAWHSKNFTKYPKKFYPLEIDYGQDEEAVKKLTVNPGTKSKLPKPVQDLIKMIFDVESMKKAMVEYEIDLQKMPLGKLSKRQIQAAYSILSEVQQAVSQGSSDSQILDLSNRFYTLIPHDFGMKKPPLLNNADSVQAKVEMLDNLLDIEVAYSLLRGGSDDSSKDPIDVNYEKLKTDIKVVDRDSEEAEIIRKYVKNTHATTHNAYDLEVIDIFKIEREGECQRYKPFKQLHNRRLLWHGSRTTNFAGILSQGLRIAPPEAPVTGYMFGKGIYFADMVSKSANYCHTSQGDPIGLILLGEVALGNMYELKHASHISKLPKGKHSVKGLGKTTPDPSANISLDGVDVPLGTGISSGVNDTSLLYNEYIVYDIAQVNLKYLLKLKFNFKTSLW

- IC50: 1800 nM
Compound: Nc1cccc2c(=O)[nH]ccc12
